Measured values reported in ChEMBL document CHEMBL5696442, “Discovery of type II inhibitors of TGFβ-activated kinase 1 (TAK1) and mitogen-activated protein kinase kinase kinase kinase 2 (MAP4K2)” (J Med Chem, 2015).

Experiments:
[1] = target: Casein kinase I isoform delta (Homo sapiens) (UniProt P48730); test: Inhibition of CK1delta Lys2 labeling site in human Huh-7 cell lysate at 1 uM by KiNativ Profiling analysis relative to control; assay type: subcellular
[2] = target: Cyclin-dependent kinase 2 (Homo sapiens) (UniProt P24941); test: Inhibition of CDK2 Lys1 labeling site in human Huh-7 cell lysate at 1 uM by KiNativ Profiling analysis relative to control; assay type: subcellular
[3] = target: Cyclin-dependent kinase 13 (Homo sapiens) (UniProt Q14004); test: Inhibition of CHED Lys2 labeling site harbouring DIKCSNILLNNR in human Huh-7 cell lysate at 1 uM by KiNativ Profiling analysis relative to control; assay type: subcellular
[4] = target: Serine/threonine-protein kinase WNK4 (Homo sapiens) (UniProt Q96J92); test: Inhibition of Wnk4 ACT labeling site in human Huh-7 cells at 1 uM by KiNativ Profiling analysis relative to control; assay type: cell-based
[5] = target: T1, Ephrin type-B receptor 4 (Homo sapiens) (UniProt P54760); test: Inhibition of EPHB4 (unknown origin) at 1 uM by Ambit Kinomescan binding assay relative to control
T1 sequence (whole entry): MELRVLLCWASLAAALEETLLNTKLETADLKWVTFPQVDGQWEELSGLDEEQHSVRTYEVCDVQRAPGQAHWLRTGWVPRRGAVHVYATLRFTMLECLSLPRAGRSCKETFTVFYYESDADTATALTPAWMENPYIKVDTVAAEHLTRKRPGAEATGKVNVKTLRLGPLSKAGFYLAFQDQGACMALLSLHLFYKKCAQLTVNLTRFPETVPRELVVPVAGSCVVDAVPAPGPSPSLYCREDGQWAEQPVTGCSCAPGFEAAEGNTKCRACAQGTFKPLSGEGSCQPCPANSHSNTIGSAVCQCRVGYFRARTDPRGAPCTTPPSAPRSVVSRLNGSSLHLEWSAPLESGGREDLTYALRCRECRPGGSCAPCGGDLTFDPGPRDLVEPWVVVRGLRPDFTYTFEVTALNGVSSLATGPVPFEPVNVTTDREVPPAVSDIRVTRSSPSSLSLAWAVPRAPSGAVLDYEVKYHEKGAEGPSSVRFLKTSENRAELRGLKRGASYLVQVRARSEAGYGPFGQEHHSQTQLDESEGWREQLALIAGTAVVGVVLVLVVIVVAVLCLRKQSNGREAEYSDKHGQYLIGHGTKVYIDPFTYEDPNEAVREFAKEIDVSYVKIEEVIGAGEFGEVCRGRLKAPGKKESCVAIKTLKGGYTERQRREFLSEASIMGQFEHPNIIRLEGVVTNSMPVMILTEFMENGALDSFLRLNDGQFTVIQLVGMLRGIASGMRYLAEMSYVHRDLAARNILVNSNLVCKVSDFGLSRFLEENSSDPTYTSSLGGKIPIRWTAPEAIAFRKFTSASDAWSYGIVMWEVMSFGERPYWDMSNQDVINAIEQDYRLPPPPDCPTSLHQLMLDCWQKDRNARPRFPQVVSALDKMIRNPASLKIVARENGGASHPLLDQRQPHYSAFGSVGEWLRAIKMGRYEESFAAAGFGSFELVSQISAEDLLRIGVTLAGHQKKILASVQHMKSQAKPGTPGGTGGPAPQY

[6] = target: MAST1/MAST2 (Homo sapiens) (UniProt Q9Y2H9+Q6P0Q8); test: Inhibition of MAST1/2 K2 labeling site in human Huh-7 cells at 1 uM by KiNativ Profiling analysis relative to control; assay type: cell-based
MAST1/MAST2 (Homo sapiens), sequence (Q6P0Q8 whole entry, looked up): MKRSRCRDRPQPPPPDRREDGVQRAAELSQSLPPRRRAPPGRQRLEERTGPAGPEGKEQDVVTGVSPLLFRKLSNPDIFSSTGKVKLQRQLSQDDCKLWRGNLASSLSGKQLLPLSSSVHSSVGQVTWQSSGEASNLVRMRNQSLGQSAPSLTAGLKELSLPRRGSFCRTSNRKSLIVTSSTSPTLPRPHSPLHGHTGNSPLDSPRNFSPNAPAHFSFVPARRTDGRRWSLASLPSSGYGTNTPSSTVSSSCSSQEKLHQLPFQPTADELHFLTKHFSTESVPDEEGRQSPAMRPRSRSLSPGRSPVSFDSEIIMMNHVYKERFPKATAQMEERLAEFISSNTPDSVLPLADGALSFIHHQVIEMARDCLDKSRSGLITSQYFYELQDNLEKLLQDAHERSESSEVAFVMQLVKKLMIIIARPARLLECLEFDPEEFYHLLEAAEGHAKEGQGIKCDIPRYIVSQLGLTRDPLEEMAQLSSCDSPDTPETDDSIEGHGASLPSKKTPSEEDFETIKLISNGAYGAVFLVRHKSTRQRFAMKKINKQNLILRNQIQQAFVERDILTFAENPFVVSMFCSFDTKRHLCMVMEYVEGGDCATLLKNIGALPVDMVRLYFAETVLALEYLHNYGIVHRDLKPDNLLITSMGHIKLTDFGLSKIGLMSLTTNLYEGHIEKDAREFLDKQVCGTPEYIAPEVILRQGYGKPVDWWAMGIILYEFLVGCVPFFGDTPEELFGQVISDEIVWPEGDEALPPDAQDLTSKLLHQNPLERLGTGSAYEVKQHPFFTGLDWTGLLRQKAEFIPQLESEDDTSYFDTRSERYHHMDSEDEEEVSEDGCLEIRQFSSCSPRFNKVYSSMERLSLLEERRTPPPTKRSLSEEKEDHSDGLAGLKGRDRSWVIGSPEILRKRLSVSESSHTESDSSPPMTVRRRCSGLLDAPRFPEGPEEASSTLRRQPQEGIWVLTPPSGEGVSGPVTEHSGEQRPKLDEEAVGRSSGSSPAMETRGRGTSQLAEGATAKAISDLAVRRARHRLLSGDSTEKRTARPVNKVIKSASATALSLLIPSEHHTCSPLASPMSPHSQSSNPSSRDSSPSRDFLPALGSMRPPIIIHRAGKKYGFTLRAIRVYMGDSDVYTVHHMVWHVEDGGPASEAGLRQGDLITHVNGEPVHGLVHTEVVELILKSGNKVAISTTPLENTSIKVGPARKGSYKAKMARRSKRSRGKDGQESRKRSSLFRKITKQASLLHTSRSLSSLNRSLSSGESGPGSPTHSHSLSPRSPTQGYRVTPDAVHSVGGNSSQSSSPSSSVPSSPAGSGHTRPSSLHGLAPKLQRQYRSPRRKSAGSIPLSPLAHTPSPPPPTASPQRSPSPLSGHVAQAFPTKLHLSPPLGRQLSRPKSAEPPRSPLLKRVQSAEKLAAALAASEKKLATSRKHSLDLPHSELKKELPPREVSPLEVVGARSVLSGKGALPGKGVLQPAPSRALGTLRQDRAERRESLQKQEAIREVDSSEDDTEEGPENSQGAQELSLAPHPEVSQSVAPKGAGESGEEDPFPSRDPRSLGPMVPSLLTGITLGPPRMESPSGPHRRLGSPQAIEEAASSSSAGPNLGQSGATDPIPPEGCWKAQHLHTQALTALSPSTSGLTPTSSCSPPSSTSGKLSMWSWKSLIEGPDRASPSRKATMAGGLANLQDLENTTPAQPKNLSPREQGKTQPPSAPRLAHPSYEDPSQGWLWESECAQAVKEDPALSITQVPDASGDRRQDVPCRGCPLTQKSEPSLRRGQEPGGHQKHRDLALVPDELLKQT
MAST1/MAST2 (Homo sapiens), sequence (Q9Y2H9 whole entry, looked up): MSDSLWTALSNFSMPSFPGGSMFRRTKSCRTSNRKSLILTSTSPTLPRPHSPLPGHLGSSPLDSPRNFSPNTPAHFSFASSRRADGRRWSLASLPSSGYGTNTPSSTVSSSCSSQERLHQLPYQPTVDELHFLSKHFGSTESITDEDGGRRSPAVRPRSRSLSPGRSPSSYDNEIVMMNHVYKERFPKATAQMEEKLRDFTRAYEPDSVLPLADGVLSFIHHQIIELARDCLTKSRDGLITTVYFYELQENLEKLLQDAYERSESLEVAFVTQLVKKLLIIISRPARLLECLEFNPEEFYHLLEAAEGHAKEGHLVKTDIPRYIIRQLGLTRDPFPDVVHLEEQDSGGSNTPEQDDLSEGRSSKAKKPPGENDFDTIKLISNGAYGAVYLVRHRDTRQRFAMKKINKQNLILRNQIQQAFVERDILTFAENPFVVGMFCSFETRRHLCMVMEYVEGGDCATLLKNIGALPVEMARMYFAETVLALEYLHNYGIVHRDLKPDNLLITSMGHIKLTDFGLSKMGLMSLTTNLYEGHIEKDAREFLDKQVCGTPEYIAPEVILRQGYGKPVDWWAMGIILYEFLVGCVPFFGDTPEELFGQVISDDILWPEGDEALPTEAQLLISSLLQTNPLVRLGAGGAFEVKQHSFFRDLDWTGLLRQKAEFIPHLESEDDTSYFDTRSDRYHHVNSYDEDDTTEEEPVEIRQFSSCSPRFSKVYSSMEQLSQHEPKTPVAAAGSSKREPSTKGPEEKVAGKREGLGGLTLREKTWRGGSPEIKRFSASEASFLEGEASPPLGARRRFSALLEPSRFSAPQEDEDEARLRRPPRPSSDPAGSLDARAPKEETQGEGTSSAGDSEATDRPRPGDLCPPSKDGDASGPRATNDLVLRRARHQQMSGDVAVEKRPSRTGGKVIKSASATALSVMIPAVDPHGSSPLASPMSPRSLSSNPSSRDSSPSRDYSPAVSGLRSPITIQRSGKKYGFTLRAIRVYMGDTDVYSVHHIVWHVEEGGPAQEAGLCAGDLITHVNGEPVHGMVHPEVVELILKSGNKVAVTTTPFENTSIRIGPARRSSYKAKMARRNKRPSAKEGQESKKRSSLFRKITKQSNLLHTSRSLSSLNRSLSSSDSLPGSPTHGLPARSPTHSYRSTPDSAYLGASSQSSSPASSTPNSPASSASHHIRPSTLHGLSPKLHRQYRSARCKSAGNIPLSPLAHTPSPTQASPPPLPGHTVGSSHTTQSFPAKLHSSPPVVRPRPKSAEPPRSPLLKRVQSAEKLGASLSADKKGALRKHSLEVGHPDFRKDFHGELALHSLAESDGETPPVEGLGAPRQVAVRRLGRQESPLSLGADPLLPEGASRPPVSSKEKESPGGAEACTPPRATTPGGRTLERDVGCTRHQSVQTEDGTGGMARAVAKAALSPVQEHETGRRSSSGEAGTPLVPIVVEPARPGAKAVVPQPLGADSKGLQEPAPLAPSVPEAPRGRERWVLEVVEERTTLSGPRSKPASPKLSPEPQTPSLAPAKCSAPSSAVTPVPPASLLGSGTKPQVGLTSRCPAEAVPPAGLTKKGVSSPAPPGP

[7] = target: Mitogen-activated protein kinase kinase kinase 4 (Homo sapiens) (UniProt Q9Y6R4); test: Inhibition of MAP3K4 K2 labeling site in human Huh-7 cells at 1 uM by KiNativ Profiling analysis relative to control; assay type: cell-based
[8] = target: T2, Dual specificity mitogen-activated protein kinase kinase 4 (Homo sapiens) (UniProt P45985); test: Inhibition of MAP2K4 Lys1 labeling site in human A-375 cells at 0.5 uM by KiNativ Profiling analysis relative to control; assay type: cell-based
T2 sequence (whole entry): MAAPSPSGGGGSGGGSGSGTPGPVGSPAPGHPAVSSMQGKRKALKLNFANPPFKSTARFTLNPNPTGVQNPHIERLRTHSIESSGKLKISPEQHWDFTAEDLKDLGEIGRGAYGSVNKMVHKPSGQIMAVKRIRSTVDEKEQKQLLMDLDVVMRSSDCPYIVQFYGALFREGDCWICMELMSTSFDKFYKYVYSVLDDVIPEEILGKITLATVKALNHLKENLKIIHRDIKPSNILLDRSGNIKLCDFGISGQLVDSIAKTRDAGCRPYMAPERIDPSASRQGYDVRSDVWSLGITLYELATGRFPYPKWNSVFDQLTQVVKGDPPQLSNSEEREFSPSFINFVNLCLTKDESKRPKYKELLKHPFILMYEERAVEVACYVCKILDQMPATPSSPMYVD

[9] = target: Tyrosine-protein kinase ABL1 (Homo sapiens, UniProt P00519); test: Inhibition of ABL Lys1 labeling site in human A-375 cells at 0.05 uM by KiNativ Profiling analysis relative to control; assay type: cell-based
Tyrosine-protein kinase ABL1, sequence (P00519 whole entry, the tested form may be a part): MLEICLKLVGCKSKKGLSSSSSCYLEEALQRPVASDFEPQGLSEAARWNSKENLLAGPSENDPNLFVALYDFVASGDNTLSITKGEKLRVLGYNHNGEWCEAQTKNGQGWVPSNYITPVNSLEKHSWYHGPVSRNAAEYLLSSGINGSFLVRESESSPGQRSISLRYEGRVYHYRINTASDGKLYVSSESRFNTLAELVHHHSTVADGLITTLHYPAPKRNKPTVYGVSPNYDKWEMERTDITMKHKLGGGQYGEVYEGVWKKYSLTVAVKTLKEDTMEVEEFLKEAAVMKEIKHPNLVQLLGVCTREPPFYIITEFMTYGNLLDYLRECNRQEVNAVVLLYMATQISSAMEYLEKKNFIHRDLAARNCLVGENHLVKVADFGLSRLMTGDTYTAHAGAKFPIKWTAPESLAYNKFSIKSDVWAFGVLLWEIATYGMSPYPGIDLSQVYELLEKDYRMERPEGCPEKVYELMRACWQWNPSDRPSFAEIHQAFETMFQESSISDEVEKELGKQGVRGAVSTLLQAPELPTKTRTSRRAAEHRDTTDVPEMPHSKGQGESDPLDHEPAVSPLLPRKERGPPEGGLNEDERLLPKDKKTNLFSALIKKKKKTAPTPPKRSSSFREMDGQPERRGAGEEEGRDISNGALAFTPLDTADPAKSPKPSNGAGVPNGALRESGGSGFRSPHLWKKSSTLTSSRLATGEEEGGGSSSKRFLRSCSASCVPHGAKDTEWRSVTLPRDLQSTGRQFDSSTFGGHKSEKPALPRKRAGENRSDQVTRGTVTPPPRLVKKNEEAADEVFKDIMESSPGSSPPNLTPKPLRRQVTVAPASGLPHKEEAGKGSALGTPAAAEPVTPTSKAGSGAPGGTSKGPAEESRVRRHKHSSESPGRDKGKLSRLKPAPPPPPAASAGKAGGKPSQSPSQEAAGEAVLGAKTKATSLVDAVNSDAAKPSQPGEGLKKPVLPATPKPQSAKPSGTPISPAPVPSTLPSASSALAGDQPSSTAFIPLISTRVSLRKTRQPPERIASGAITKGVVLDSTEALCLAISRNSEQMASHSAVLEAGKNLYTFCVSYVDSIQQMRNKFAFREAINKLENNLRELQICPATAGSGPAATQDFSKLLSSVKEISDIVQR

[10] = target: Epithelial discoidin domain-containing receptor 1 (Homo sapiens) (UniProt Q08345); test: Inhibition of DDR1 (unknown origin) at 10 uM by Ambit Kinomescan binding assay; values are per cent of control

Casein kinase I isoform delta (Homo sapiens), sequence (P48730 whole entry, looked up, canonical isoform): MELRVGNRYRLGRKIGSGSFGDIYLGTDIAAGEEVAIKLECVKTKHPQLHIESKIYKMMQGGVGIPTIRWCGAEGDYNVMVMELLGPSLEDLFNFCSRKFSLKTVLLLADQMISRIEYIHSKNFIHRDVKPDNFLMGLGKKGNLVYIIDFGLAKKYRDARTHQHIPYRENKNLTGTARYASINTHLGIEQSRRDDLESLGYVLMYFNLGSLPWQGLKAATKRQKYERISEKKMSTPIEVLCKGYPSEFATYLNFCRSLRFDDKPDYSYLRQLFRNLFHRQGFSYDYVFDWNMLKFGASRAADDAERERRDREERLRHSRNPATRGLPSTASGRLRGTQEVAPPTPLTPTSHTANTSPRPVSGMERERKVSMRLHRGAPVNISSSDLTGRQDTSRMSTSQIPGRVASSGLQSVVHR

CNc1cc(Oc2cc(C(=O)Nc3cc(N4CCN(C)CC4)cc(C(F)(F)F)c3)ccc2C)ncn1
inhibition [1]: 0.6% | inhibition [2]: 17.7% | inhibition [3]: 14% | inhibition [4]: 21.6%

CCN1CCN(Cc2ccc(NC(=O)c3ccc(C)c(/C=C/c4cnc5[nH]ccc5c4OC)c3)cc2C(F)(F)F)CC1
inhibition [5]: 21%

CCN1CCN(Cc2ccc(NC(=O)c3ccc(C)c(Oc4ccnc5[nH]ccc45)c3)cc2C(F)(F)F)CC1
inhibition [6]: -7.1% | inhibition [7]: -2.3% | inhibition [8]: -4% | inhibition [9]: 84.8% | percent of control [10]: 0.05%
